Data on three compounds can be found in ChEMBL document CHEMBL1201862, “PubChem BioAssay data set” (2004).

Assay [1] concerns the target T1, Dual specificity protein phosphatase 6 (Rattus norvegicus, UniProt Q64346).
T1 sequence (Q64346 whole entry): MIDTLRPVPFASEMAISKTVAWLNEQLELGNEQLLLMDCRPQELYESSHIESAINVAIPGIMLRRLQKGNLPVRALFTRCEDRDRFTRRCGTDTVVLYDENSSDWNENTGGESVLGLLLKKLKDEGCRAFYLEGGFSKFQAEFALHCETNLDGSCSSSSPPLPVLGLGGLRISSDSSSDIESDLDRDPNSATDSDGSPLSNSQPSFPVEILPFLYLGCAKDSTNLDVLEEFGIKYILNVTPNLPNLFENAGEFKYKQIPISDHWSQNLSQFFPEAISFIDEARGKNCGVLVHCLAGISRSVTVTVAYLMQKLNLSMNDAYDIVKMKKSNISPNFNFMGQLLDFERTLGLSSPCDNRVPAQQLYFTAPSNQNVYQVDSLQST
The experiment in a line: MKP-3 phosphatase inhibitors, primary screen, biochemical, rat enzyme, in vitro (AID 425).

In assay [2] the target is cGMP-dependent protein kinase 1 (Homo sapiens, UniProt Q13976). The assay is classed as functional.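 Note: value from a kinome panel screen with PRKG1 as the panel member.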
In assay [3] the target is Tyrosine-protein kinase SYK (Homo sapiens, UniProt P43405). The assay is classed as functional.
For assay [4], the target named is T2, Serine/threonine-protein kinase D3 (Homo sapiens, UniProt O94806).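 Note: determined within a kinase panel screen, with PRKCN as the panel member.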
T2 sequence (O94806 whole entry): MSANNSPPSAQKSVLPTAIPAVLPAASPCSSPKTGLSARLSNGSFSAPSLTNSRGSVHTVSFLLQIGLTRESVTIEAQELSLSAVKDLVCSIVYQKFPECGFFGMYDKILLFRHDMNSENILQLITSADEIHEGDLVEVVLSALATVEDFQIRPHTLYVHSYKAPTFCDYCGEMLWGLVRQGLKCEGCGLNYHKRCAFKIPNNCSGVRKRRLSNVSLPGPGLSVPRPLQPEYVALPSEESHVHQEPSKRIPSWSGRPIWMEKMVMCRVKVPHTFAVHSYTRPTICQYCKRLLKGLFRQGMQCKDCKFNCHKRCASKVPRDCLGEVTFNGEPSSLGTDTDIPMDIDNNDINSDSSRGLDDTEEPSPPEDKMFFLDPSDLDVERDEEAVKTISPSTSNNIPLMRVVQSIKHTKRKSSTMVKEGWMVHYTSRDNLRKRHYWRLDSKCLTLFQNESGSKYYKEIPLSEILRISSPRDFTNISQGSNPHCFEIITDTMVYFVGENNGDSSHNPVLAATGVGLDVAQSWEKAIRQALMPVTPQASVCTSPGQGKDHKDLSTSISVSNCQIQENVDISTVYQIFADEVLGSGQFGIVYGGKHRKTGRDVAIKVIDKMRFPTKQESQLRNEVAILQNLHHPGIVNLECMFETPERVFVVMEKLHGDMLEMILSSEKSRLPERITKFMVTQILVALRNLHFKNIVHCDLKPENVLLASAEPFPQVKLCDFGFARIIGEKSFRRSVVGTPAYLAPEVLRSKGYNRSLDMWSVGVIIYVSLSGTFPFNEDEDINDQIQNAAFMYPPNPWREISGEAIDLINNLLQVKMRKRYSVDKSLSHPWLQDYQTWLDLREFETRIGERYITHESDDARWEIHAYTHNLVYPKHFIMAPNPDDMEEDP
The assay is classed as functional.

In assay [5] the target is Serine/threonine-protein kinase Chk2 (Homo sapiens, UniProt O96017). The assay is classed as functional.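 Note: CHEK2 entry within a kinome-wide screening panel.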
For the next assay, the target named is SRSF protein kinase 1 (Homo sapiens, UniProt Q96SB4). The assay is classed as functional.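 Note: measured as one member of a kinome-wide kinase profiling panel.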
The target of assay [6] is Serine/threonine-protein kinase PAK 4 (Homo sapiens, UniProt O96013). In kind it is functional.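 Note: value obtained within a kinome profiling panel in which PAK4 was one of the panel members.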
Serine/threonine-protein kinase PAK 4, sequence (O96013 whole entry): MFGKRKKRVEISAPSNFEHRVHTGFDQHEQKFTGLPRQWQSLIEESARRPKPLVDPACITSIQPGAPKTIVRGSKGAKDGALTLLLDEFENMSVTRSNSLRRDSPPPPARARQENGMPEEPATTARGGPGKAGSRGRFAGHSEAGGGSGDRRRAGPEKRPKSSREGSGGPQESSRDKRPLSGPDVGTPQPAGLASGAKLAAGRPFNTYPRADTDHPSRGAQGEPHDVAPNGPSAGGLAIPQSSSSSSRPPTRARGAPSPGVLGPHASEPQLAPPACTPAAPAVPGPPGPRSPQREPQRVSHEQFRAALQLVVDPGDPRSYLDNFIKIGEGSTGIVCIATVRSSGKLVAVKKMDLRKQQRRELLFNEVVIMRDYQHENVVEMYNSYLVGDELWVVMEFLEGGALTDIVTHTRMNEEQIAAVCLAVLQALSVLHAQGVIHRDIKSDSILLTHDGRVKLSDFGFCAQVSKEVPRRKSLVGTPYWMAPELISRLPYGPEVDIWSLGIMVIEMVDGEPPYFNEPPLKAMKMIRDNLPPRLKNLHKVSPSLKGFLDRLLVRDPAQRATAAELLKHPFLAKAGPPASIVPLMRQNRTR
Assay [7] addresses Calcium/calmodulin-dependent protein kinase type II subunit delta (Homo sapiens, UniProt Q13557). In kind it is functional.
For assay [8], the target named is Tyrosine-protein kinase JAK3 (Homo sapiens, UniProt P52333). The assay is classed as functional.
Assay [9] deals with Proto-oncogene tyrosine-protein kinase ROS (Homo sapiens, UniProt P08922). The assay is classed as functional.
The target of assay [10] is Tyrosine-protein kinase Blk (Homo sapiens, UniProt P51451). In kind it is functional.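 Note: obtained as one member of a kinome-wide kinase assay panel.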
In assay [11] the target is Glycogen synthase kinase-3 alpha (Homo sapiens, UniProt P49840). The assay is classed as functional.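 Note: GSK3A result taken from a broad kinome-wide kinase panel.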
Glycogen synthase kinase-3 alpha, sequence (P49840 whole entry): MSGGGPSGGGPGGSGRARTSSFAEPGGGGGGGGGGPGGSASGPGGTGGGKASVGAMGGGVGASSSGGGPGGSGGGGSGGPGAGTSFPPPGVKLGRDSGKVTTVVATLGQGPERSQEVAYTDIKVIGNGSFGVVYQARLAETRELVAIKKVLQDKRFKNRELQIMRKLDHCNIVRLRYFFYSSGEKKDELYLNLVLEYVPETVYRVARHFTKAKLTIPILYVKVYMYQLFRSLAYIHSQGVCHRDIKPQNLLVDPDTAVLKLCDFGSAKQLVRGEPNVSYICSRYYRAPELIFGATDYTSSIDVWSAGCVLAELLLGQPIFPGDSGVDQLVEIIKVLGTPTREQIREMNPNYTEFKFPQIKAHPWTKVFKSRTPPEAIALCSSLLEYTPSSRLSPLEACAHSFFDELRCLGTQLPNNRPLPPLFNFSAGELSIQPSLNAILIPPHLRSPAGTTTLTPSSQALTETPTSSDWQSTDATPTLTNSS
Assay [12] has as its target Insulin-like growth factor 1 receptor (Homo sapiens, UniProt P08069). The assay is described as follows: Navigating the Kinome. Panel member name: IGF1R. In kind it is functional.
For the next assay, the target named is Focal adhesion kinase 1 (Homo sapiens, UniProt Q05397). The assay is classed as functional.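 Note: measured as one member of a kinome panel.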
The target of assay [13] is Mitogen-activated protein kinase kinase kinase kinase 5 (Homo sapiens, UniProt Q9Y4K4). In kind it is functional.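 Note: measured as one member of a kinome-spanning kinase panel.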
The target in assay [14] is Tyrosine-protein kinase Fer (Homo sapiens, UniProt P16591). In kind it is functional.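 Note: FER tested as one member of a kinome panel.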
Assay [15] concerns the target Serine/threonine-protein kinase pim-2 (Homo sapiens, UniProt Q9P1W9). The assay is classed as functional.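 Note: value comes from a broad kinase panel profiling study in which PIM2 was one of the panel members.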
In assay [16] the target is Serine/threonine-protein kinase Nek2 (Homo sapiens, UniProt P51955). In kind it is functional.
Serine/threonine-protein kinase Nek2, sequence (P51955 whole entry): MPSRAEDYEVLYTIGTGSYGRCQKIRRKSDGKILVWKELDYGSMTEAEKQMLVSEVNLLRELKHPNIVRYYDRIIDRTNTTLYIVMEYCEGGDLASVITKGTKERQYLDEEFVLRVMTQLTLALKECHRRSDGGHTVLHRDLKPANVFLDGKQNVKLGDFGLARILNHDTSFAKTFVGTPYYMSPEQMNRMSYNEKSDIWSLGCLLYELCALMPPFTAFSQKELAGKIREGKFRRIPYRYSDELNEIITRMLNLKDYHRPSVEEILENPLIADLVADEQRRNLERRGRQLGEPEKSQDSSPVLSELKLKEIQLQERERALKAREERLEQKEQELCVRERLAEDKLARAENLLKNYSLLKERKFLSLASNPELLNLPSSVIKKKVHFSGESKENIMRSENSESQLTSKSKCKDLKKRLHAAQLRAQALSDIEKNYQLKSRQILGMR
The target of assay [17] is Vascular endothelial growth factor receptor 1 (Homo sapiens, UniProt P17948). The assay is classed as functional.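 Note: measured within a kinome-wide profiling panel, FLT1 as the panel member.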
Vascular endothelial growth factor receptor 1, sequence (P17948 whole entry): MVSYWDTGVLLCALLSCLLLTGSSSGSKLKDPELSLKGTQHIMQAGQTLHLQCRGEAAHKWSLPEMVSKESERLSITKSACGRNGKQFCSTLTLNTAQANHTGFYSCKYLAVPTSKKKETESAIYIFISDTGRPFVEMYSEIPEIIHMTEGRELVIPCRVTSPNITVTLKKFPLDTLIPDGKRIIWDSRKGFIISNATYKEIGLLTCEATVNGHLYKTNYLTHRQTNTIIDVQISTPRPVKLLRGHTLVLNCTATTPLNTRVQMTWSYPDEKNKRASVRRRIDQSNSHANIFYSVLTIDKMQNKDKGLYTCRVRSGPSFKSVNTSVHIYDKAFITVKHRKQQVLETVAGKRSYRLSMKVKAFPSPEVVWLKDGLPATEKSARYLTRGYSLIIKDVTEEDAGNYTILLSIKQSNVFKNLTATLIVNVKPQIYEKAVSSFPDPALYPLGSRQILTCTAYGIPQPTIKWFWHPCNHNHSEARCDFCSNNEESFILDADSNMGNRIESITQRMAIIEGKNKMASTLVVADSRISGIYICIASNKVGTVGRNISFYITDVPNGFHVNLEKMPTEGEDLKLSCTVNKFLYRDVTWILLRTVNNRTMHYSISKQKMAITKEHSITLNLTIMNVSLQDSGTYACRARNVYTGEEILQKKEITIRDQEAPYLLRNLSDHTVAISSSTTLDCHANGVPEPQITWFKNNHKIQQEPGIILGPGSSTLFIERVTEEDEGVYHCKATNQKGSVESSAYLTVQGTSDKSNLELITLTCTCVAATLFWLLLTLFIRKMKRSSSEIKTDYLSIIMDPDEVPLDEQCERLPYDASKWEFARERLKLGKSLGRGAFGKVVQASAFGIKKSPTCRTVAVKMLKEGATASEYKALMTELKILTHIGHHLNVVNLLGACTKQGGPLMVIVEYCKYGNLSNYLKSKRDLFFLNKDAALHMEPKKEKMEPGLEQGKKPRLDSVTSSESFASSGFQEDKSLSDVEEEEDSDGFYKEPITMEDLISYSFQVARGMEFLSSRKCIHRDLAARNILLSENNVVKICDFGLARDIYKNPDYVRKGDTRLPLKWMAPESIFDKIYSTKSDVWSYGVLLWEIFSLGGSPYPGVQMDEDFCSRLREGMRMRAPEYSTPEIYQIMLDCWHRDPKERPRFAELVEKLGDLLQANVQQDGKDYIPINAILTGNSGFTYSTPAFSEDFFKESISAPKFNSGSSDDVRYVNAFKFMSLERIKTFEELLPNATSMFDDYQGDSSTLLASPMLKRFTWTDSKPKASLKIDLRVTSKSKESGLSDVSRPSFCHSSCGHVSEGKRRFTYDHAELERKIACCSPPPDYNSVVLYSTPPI
Assay [18] addresses Macrophage colony-stimulating factor 1 receptor (Homo sapiens, UniProt P07333). The assay is classed as functional.
Assay [19] concerns the target Serine/threonine-protein kinase BRSK1 (Homo sapiens, UniProt Q8TDC3). The assay is classed as functional.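 Note: measured within a kinome-wide kinase panel, with the target listed as KIAA1811.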
The next assay addresses LIM domain kinase 1 (Homo sapiens, UniProt P53667). The assay is described as follows: Navigating the Kinome. Panel member name: LIMK1. The assay is classed as functional.
Assay [20] concerns the target G protein-coupled receptor kinase 5 (Homo sapiens, UniProt P34947). The assay is described as follows: Navigating the Kinome. Panel member name: GPRK5. The assay is classed as functional.
Assay [21] addresses Macrophage-stimulating protein receptor (Homo sapiens, UniProt Q04912). The experiment in a line: Navigating the Kinome. Panel member name: MST1R. The assay is classed as functional.
The target in assay [22] is Inhibitor of nuclear factor kappa-B kinase subunit epsilon (Homo sapiens, UniProt Q14164). The experiment in a line: Navigating the Kinome. Panel member name: IKBKE. In kind it is functional.

Active and inactive are the calls of the source.

Insulin-like growth factor 1 receptor, sequence (P08069 31-736 limits assumed): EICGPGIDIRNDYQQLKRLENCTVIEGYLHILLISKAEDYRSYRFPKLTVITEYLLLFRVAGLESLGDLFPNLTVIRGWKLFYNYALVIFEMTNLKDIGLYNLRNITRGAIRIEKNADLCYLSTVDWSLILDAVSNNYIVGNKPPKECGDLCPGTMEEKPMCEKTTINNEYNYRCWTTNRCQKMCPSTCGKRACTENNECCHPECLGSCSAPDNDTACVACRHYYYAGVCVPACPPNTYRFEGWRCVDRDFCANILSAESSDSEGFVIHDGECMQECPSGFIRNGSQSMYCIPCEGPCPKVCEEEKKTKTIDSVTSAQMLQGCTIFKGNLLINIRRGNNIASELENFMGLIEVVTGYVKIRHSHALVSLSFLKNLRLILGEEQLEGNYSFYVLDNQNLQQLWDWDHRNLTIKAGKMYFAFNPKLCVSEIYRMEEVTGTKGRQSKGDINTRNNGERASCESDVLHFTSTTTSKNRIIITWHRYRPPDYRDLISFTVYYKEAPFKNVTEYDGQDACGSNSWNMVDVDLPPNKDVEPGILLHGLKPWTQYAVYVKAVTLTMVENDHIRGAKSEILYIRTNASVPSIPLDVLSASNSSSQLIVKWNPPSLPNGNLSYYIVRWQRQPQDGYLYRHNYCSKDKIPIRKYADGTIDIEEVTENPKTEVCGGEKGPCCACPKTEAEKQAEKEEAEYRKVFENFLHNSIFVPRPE
Insulin-like growth factor 1 receptor, sequence (P08069 741-1367 limits assumed): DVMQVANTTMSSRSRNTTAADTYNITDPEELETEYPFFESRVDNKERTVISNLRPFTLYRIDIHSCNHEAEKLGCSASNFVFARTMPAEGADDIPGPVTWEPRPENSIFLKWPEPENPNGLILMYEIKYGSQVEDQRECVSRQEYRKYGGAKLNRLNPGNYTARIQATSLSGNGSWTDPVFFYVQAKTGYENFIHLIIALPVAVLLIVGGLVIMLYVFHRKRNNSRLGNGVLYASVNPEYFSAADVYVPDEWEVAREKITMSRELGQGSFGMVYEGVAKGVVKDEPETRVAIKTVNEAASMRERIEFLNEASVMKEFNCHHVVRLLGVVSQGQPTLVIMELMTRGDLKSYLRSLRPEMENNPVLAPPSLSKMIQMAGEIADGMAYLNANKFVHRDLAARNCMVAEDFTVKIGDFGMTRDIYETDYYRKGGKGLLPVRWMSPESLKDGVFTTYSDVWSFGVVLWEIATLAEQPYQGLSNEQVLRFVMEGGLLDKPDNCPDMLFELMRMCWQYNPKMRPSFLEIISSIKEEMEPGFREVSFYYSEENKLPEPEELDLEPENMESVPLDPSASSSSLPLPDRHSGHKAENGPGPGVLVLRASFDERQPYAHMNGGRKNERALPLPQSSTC
G protein-coupled receptor kinase 5, sequence (P34947 whole entry): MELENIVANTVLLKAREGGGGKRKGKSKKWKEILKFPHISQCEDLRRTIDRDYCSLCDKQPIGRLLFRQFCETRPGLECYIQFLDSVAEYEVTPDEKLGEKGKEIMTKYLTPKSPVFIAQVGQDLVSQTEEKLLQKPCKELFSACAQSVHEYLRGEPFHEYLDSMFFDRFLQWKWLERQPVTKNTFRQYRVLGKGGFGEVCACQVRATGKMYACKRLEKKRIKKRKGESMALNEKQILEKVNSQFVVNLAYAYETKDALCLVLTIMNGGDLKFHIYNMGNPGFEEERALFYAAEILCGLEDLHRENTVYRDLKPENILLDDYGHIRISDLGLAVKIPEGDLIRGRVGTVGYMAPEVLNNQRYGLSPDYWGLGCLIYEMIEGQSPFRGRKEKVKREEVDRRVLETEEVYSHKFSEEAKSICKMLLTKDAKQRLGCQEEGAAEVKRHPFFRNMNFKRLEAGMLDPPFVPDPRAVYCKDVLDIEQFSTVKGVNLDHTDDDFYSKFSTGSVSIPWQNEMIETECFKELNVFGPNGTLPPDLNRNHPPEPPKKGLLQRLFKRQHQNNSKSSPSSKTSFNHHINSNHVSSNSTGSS

Usually IC50 stands for the concentration needed to halve the response being measured. On to `COc1ccc(-n2c(NC(=O)c3ccco3)c(C#N)c3nc4ccccc4nc32)cc1`, for which the IC50 in assay [1] is > 100000 nM (not active).
As usually defined, the Ki is the equilibrium dissociation constant of an inhibitor or competing ligand from its target. On to `Cc1n[nH]c2ccc(-c3cncc(OCC(N)Cc4ccc(Cl)c(Cl)c4)c3)cc12` (stereo not drawn), for which the Ki in [2] is 7.94 nM (active); in assay [3] it was > 1580 nM (inactive); in assay [4] it was 3.98 nM (active); in assay [5] it was 398 nM (active); on SRSF protein kinase 1, > 5010 nM (inactive); in [6] it was 79.4 nM (active). Further, the Ki in assay [7] was 12.6 nM (active); in [8], 1260 nM (active); in [9] it was 631 nM (active); in assay [10], > 1580 nM (inactive); in [11] it was 100 nM (active); in assay [12], > 2000 nM (inactive). Further, the Ki is > 1580 nM (inactive) at Focal adhesion kinase 1; 158 nM (active) in assay [13]; 1260 nM (active) in assay [14]; 12.6 nM (active) in assay [15]; > 10000 nM (inactive) in [16]; > 398 nM (inactive) in assay [17]. The Ki in [18] was > 2510 nM (inactive); in assay [19], 3160 nM (active).
On to `[2H]C([2H])([2H])Oc1cccc(C(C)NC(=O)c2sc(-c3ccncc3)nc2C)c1` (stereo not drawn), for which the Ki in assay [4] is > 3980 nM (inactive); in assay [6], > 5010 nM (inactive); in [8], > 5010 nM (inactive); on LIM domain kinase 1, > 3160 nM (inactive); in assay [11], 3160 nM (active); in [20], 3160 nM (active). In addition, the Ki is > 2510 nM (inactive) in assay [12]; > 3160 nM (inactive) in [16]; > 3980 nM (inactive) in [17]; > 3980 nM (inactive) in assay [21]; > 2510 nM (inactive) in [18]; > 3160 nM (inactive) in assay [22].
